{"source": "ChEMBL document CHEMBL4376834", "about": "“Discovery of 4H-Chromen-4-one Derivatives as a New Class of Selective Rho Kinase (ROCK) Inhibitors, which Showed Potent Activity in ex Vivo Diabetic Retinopathy Models” (J Med Chem, 2019)", "key": {"[1]": {"molecular_target": "Cyclin-dependent kinase 2/cyclin E1 (Homo sapiens, UniProt P24941)", "assay": "Inhibition of recombinant full length human CDK2/CyclinE using Histone H1 as substrate incubated for 40 mins in presence of [gamma-33ATP] by radiometric scintillation counting analysis", "assay_type": "protein-complex assay"}, "[2]": {"molecular_target": "G protein-coupled receptor kinase 6 (Homo sapiens, UniProt P43250)", "sequence (P43250 whole entry)": "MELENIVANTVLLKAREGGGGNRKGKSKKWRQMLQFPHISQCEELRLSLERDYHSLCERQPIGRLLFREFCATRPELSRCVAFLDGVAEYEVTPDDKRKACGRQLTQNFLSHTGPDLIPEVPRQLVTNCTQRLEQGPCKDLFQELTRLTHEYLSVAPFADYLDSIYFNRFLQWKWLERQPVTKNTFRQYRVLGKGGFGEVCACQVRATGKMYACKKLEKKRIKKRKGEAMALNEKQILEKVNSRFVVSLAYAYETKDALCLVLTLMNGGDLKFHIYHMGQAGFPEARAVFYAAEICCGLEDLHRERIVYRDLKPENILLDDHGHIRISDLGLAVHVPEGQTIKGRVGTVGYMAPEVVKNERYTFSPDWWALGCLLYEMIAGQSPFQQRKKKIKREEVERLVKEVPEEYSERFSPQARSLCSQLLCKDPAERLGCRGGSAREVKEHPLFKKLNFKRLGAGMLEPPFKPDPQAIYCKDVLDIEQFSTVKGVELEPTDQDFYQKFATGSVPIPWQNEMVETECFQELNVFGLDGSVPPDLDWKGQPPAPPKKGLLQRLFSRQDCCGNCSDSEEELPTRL", "assay": "Inhibition of recombinant full length human GRK6 using casein as substrate after 40 mins in presence of [gamma-33ATP] by radiometric scintillation counting analysis"}, "[3]": {"molecular_target": "Fibroblast growth factor receptor 3 (Homo sapiens, UniProt P22607)", "sequence (P22607 whole entry, the tested form may be a part)": "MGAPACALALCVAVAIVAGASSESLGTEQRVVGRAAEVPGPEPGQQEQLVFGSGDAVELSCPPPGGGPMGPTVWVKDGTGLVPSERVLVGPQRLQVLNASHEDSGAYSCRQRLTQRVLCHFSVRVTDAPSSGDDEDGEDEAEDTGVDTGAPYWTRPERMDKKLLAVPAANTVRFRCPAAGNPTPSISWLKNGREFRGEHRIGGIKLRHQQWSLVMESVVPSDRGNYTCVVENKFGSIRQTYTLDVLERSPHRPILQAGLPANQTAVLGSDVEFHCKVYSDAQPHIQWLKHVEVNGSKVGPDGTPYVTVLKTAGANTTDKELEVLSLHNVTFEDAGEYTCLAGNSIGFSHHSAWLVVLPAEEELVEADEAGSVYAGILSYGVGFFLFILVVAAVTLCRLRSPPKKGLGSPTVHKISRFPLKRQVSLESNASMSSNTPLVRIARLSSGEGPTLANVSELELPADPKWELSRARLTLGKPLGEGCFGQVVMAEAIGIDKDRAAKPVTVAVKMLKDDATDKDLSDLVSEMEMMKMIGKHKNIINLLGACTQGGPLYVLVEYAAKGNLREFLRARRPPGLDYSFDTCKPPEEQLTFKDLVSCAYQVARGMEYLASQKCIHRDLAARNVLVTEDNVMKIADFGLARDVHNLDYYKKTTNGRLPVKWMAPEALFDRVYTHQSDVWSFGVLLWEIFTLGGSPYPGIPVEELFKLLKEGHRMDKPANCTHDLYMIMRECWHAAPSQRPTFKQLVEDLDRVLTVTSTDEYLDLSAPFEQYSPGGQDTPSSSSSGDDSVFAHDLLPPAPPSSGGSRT", "assay": "Inhibition of recombinant human FGFR3 (447 to 761 residues) using poly(Glu, Tyr) 4:1 as substrate after 40 mins in presence of [gamma-33ATP] by radiometric scintillation counting analysis"}, "[4]": {"molecular_target": "Cyclin-dependent kinase 13/Cyclin-K (Homo sapiens, UniProt Q14004)", "assay": "Inhibition of recombinant full length human CDK13/cyclinK using RSRSRSRSRSRSR as substrate incubated for 120 mins in presence of [gamma-33ATP] by radiometric scintillation counting analysis", "assay_type": "protein-complex assay"}, "[5]": {"molecular_target": "Serine/threonine-protein kinase D3 (Homo sapiens, UniProt O94806)", "assay": "Inhibition of recombinant full-length human PKD3 using KKLRRTLSVA as substrate incubated for 40 mins in presence of [gamma33P]ATP by radiometric scintillation counting analysis"}, "[6]": {"assay": "Protein binding in rat plasma at 1 uM incubated incubated for 5 hrs under shaking conditions by LC-MS analysis", "assay_type": "ADME, cell-free", "conditions": "read-out: PPB (converted)"}, "[7]": {"molecular_target": "cGMP-dependent protein kinase 1 (Homo sapiens, UniProt Q13976)", "assay": "Inhibition of recombinant full length human PKG1alpha using RRRLSFAEPG as substrate incubated for 40 mins in presence of [gamma-33P]ATP and 10 uM ATP by radiometric scintillation counting analysis"}, "[8]": {"molecular_target": "Macrophage colony-stimulating factor 1 receptor (Homo sapiens, UniProt P07333)", "assay": "Inhibition of recombinant human FMS (538 to end residues) using KKKSPGEYVNIEF as substrate after 40 mins in presence of [gamma-33ATP] by radiometric scintillation counting analysis"}, "[9]": {"molecular_target": "PI3-kinase p110-alpha/p85-alpha (Homo sapiens, UniProt P42336, E545K)", "sequence (P42336 whole entry E545K, looked up)": "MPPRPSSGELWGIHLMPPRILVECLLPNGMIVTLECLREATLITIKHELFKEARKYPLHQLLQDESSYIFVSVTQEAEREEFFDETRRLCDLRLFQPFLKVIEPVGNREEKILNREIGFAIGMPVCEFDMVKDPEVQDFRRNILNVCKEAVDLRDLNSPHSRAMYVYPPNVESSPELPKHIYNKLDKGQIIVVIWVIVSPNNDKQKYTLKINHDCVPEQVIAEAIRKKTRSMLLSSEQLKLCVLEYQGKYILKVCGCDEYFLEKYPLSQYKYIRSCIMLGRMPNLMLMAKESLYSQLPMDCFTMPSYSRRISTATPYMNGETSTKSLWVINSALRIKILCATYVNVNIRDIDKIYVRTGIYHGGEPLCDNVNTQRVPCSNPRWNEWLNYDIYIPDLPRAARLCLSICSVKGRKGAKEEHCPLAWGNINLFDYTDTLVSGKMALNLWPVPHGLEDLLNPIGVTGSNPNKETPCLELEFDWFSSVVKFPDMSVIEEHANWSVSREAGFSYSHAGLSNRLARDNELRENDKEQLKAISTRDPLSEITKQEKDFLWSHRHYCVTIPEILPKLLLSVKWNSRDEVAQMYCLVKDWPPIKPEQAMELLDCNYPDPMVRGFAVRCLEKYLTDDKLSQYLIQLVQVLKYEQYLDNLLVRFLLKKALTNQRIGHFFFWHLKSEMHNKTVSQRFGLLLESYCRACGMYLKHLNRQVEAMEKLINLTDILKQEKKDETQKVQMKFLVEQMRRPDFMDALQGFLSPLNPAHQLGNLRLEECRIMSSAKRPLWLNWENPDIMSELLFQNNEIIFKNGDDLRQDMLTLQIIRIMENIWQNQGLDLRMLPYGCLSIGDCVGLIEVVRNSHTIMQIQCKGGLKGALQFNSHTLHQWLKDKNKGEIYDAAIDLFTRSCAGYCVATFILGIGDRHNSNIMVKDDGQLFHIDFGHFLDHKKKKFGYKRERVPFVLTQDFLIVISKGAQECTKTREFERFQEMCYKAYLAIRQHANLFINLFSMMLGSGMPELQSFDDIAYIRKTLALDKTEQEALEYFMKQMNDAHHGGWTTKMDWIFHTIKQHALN", "assay": "Inhibition of recombinant human full length PI3K p110alpha/p85alpha E545K mutant using phosphatidylinositol 4,5-bisphosphate as substrate incubated for 40 mins in presence of [gamma33P]ATP by radiometric scintillation counting analysis", "assay_type": "protein-complex assay"}, "[10]": {"molecular_target": "CDK2/Cyclin A1 (Homo sapiens, UniProt P24941)", "assay": "Inhibition of recombinant full length human CDK2/CyclinA using Histone H1 as substrate incubated for 40 mins in presence of [gamma-33ATP] by radiometric scintillation counting analysis", "assay_type": "protein-complex assay"}, "[11]": {"assay": "Inhibition of recombinant human Ros V2262A mutant (1883 to end residues) using KKKSPGEYVNIEFG as substrate incubated for 40 mins in presence of [gamma33P]ATP by radiometric scintillation counting analysis"}, "[12]": {"molecular_target": "Dual specificity protein kinase CLK1 (Homo sapiens, UniProt P49759)", "assay": "Inhibition of recombinant human CLK1 (130 to end residues) using ERMRPRKRQGSVR as substrate incubated 40 mins in presence of [gamma-33ATP] by radiometric scintillation counting analysis"}, "[13]": {"molecular_target": "Tyrosine-protein kinase Lck (Homo sapiens, UniProt P06239)", "assay": "Inhibition of recombinant full length human LCK using […] as substrate after 40 mins in presence of [gamma-33ATP] by radiometric scintillation counting analysis"}, "[14]": {"assay": "Inhibition of recombinant human MAPKAPK2 A399G mutant (46 to end residues) using KKLNRTLSVA as substrate incubated for 40 mins in presence of [gamma-33ATP by radiometric scintillation counting analysis"}, "[15]": {"molecular_target": "Death-associated protein kinase 3 (Homo sapiens, UniProt O43293)", "assay": "Inhibition of recombinant human ZIPK (1 to 290 residues) using KKLNRTLSFAEPG substrate incubated for 40 mins in presence of [gamma33P]ATP by radiometric scintillation counting analysis"}, "[16]": {"molecular_target": "Activin receptor type-1-like (Homo sapiens, UniProt P37023)", "assay": "Inhibition of human recombinant ALK1 (142 to end residues) using casein as substrate incubated for 40 mins in presence of [gamma-33P]ATP by radiometric scintillation counting analysis"}, "[17]": {"assay": "Half life in human liver microsomes measured upto 45 mins in presence of NADPH by LC-MS analysis", "assay_type": "ADME, Microsome"}, "[18]": {"molecular_target": "Serine/threonine-protein kinase 35 (Homo sapiens, UniProt Q8TDR2)", "assay": "Inhibition of recombinant full length human CLIK1 at 10 uM using RSRSRSRSRSRS as substrate measured after 40 mins in presence of [gamma33P]ATP by radiometric scintillation counting analysis"}, "[19]": {"molecular_target": "Serine/threonine-protein kinase Nek11 (Homo sapiens, UniProt Q8NG66)", "sequence (Q8NG66 whole entry)": "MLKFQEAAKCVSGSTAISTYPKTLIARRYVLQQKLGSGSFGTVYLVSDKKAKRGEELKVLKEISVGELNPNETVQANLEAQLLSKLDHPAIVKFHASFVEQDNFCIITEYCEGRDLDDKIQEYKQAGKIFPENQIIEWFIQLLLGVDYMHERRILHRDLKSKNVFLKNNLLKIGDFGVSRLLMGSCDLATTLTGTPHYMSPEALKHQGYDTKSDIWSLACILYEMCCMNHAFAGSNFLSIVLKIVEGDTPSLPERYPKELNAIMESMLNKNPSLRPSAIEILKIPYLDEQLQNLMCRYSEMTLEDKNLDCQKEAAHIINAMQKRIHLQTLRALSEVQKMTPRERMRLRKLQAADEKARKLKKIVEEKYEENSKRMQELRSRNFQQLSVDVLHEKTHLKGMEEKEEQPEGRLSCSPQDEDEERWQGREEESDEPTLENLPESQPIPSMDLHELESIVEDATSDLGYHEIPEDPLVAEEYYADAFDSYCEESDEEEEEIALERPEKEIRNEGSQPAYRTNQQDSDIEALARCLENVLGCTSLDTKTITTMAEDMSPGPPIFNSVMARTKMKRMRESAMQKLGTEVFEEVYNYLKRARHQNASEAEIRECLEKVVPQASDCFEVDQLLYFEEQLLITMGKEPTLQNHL", "assay": "Inhibition of recombinant full length human NEK11 using myelin basic protein as substrate measured after 40 mins in presence of [gamma33P]ATP by radiometric scintillation counting analysis"}, "[20]": {"molecular_target": "Calcium/calmodulin-dependent protein kinase type II subunit beta (Homo sapiens, UniProt Q13554)", "assay": "Inhibition of recombinant human CaMK2beta (1 to 315 residues) using calmodulin a substrate incubated for 40 mins in presence of [gamma-33ATP] by radiometric scintillation counting analysis"}, "[21]": {"molecular_target": "Protein kinase C epsilon type (Homo sapiens, UniProt Q02156)", "assay": "Inhibition of recombinant human PKCepsilon (2 to end residues) using ERMRPRKRQGSVRR as substrate incubated for 40 mins in presence of [gamma33P]ATP by radiometric scintillation counting analysis"}, "[22]": {"molecular_target": "Wee1-like protein kinase 2 (Homo sapiens, UniProt P0C1S8)", "assay": "Inhibition of recombinant full length human WEE1b using LSNLYHQGKFLQTFCGSPLYRRR as substrate incubated for 120 mins in presence of [gamma33P]ATP by radiometric scintillation counting analysis"}, "[23]": {"molecular_target": "Glycogen synthase kinase-3 alpha (Homo sapiens, UniProt P49840)", "assay": "Inhibition of human GSK-3alpha S449A mutant (2 to end residues) using YRRAAVPPSPSLSR as substrate after 40 mins by [gamma-33ATP] radiometric scintillation counting analysis"}, "[24]": {"molecular_target": "CDK6/cyclin D3 (Homo sapiens, UniProt Q00534)", "assay": "Inhibition of recombinant full length human CDK6/cyclinD3 using histone H1 as substrate incubated for 40 mins in presence of [gamma-33ATP] by radiometric scintillation counting analysis", "assay_type": "protein-complex assay"}, "[25]": {"molecular_target": "[Pyruvate dehydrogenase (acetyl-transferring)] kinase isozyme 4, mitochondrial (Homo sapiens, UniProt Q16654)", "assay": "Inhibition of recombinant human full length PDHK4 using KKKYHGHSMSDPG as substrate incubated for 40 mins in presence of [gamma33P]ATP by radiometric scintillation counting analysis"}, "[26]": {"molecular_target": "Myosin light chain kinase 2, skeletal/cardiac muscle (Homo sapiens, UniProt Q9H1R3)", "assay": "Inhibition of recombinant full length human MYLK2 using KKLNRTLSFAEPG as substrate measured after 40 mins in presence of [gamma33P]ATP by radiometric scintillation counting analysis"}, "[27]": {"molecular_target": "Serine/threonine-protein kinase WNK3 (Homo sapiens, UniProt Q9BYP7)", "sequence (Q9BYP7 whole entry, the tested form may be a part)": "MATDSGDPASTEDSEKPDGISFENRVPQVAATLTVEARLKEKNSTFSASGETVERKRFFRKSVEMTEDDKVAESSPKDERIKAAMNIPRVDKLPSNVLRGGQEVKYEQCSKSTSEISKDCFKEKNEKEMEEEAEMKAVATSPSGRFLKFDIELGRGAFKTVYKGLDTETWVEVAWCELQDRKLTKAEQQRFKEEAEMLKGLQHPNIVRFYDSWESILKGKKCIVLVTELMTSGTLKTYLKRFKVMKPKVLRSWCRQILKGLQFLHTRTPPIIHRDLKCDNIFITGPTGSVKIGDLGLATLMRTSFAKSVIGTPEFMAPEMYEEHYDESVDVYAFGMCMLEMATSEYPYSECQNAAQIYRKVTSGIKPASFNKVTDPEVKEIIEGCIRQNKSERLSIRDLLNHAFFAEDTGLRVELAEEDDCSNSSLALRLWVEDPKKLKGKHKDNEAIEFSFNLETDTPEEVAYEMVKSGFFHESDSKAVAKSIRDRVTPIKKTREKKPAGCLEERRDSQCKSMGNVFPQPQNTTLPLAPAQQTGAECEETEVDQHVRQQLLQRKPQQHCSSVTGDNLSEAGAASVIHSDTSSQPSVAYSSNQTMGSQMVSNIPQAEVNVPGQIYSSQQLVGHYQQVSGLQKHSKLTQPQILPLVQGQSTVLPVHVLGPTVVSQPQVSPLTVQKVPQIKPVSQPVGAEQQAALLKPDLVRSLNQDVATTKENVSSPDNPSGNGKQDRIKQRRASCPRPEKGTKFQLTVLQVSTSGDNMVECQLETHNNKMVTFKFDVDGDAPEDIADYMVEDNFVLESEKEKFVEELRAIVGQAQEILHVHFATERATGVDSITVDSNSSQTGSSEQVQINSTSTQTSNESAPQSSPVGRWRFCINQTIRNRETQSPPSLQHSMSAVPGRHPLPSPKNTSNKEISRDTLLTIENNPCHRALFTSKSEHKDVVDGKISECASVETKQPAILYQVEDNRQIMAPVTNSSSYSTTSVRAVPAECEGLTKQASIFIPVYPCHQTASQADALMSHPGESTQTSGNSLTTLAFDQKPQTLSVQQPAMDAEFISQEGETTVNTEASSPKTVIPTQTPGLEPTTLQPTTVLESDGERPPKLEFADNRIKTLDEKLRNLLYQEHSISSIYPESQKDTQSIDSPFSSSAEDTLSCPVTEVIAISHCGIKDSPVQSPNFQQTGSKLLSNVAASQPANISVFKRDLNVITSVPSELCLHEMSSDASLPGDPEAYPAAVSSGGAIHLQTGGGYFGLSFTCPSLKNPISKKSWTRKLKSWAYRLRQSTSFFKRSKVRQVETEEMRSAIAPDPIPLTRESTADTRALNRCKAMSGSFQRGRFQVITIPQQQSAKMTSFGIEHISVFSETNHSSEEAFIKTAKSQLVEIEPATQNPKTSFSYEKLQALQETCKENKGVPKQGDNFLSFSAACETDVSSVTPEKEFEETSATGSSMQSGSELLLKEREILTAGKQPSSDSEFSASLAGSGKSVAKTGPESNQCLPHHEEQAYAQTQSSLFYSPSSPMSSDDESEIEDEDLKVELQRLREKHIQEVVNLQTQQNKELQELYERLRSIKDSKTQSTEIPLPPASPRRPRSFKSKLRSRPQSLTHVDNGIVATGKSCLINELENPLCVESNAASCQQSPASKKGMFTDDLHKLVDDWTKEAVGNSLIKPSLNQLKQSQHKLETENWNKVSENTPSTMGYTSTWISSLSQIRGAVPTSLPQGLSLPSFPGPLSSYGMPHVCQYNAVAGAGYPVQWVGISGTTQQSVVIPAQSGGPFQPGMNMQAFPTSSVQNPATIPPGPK", "assay": "Inhibition of recombinant human WNK3 (1 to 434 residues) using myelin basic protein as substrate incubated for 40 mins in presence of [gamma33P]ATP by radiometric scintillation counting analysis"}}}
{"smiles": "CN(C)c1ccc(C(=O)Nc2cccc(NC(=O)COc3ccc4c(=O)ccoc4c3)c2)cc1", "values": [{"measurement": "IC50", "setting": "[1]", "result": "> 10", "unit": "µM"}, {"measurement": "IC50", "setting": "[2]", "result": "> 10", "unit": "µM"}, {"measurement": "IC50", "setting": "[3]", "result": "> 10", "unit": "µM"}, {"measurement": "IC50", "setting": "[4]", "result": "> 10", "unit": "µM"}, {"measurement": "IC50", "setting": "[5]", "result": "> 10", "unit": "µM"}, {"measurement": "fraction unbound at 5 h, 1 µM", "setting": "[6]", "result": 0.004}, {"measurement": "IC50", "setting": "[7]", "result": 0.517, "unit": "µM"}, {"measurement": "IC50", "setting": "[8]", "result": "> 10", "unit": "µM"}, {"measurement": "IC50", "setting": "[9]", "result": "> 10", "unit": "µM"}, {"measurement": "IC50", "setting": "[10]", "result": "> 10", "unit": "µM"}, {"measurement": "IC50", "setting": "[11]", "result": "> 10", "unit": "µM"}, {"measurement": "IC50", "setting": "[12]", "result": "> 10", "unit": "µM"}, {"measurement": "IC50", "setting": "[13]", "result": "> 10", "unit": "µM"}, {"measurement": "IC50", "setting": "[14]", "result": "> 10", "unit": "µM"}, {"measurement": "IC50", "setting": "[15]", "result": "> 10", "unit": "µM"}, {"measurement": "IC50", "setting": "[16]", "result": "> 10", "unit": "µM"}, {"measurement": "half-life", "setting": "[17]", "result": 8.05, "unit": "min"}, {"measurement": "IC50", "setting": "[18]", "result": "> 10", "unit": "µM"}, {"measurement": "IC50", "setting": "[19]", "result": "> 10", "unit": "µM"}, {"measurement": "IC50", "setting": "[20]", "result": "> 10", "unit": "µM"}, {"measurement": "IC50", "setting": "[21]", "result": "> 10", "unit": "µM"}, {"measurement": "IC50", "setting": "[22]", "result": "> 10", "unit": "µM"}, {"measurement": "IC50", "setting": "[23]", "result": "> 10", "unit": "µM"}, {"measurement": "IC50", "setting": "[24]", "result": "> 10", "unit": "µM"}, {"measurement": "IC50", "setting": "[25]", "result": "> 10", "unit": "µM"}, {"measurement": "IC50", "setting": "[26]", "result": "> 10", "unit": "µM"}, {"measurement": "IC50", "setting": "[27]", "result": "> 10", "unit": "µM"}]}
